Data published in patent US20250376483A1, “PRODRUGS OF PAN-KRAS INHIBITORS” (Mirati Therapeutics, Inc., priority 2022, published 2025).

Tests used:
[1] = Whole Blood Stability Assay (mouse whole blood); format: in vitro ADME; conditions: CD-1 mouse blood, EDTA-K2, final conc. 2 μM, 37° C., 0-120 min; for half-life at 2 μM: male, fresh whole blood, read-out: Mouse Whole Blood Stability t1/2
Description: Whole Blood Stability Assay
This Example illustrates that exemplary compounds of the present invention is cleavage in mouse whole blood.
(§1) Test Compounds and Stock Solutions: Stock Conc. 10 mM; Final Conc. 2 μM
(§2) Test Compound and Control Working Solution Preparation:
• Intermediate solution: 5 μL of compound stock solution (10 mM in dimethyl sulfoxide (DMSO)) were diluted with […] of DMSO (intermediate solution concentration: 1 mM, 100% DMSO) • Propantheline bromide (control) intermediate solution: 5 μL of propantheline stock solution (10 mM in ultra-pure water) were diluted with 45 μL of ultra-pure water (intermediate solution concentration: 1 mM) • Working solution 1: 20 μL of test compound intermediate solution (1 mM) were diluted with 180 μL of 45% ACN/H2O (working solution concentration: […], 40.5% ACN, 10% DMSO) • Working solution 2: 20 μL of control intermediate solution (1 mM) were diluted with 180 μL of 45% ACN/H2O (working solution concentration: 100 μM, 40.5% ACN, 10% DMSO) • Species/Matrix: CD-1 Mouse Blood • No. of Individuals: n>3 Male • Anticoagulant Used: EDTA-K2
• The fresh blood was collected on the day of experiment and pre-warmed in a water bath at 37° C. • Using an Apricot automation workstation, 98 μL/well of blank blood were added to all 96-well reaction plates (Blank, T0, T10, T30, T60 and T120). • An Apricot automation workstation was used to add 2 μL/well of working solution (100 μM) to all reaction plates except Blank (T0, T10, T30, T60 and T120). • All reaction plates containing mixtures of compound and blood were incubated at 37° C. in water bath. • The reaction plates were incubated at 37° C., and timer was started. • At the end of incubation, mixed 100 μL water with 100 μL spiked blood samples, then added 800 μL of stop solution (200 ng/mL tolbutamide and 200 ng/mL labetalol in ACN) to precipitate protein. Mixed thoroughly. • Each plate was sealed and shaken for 20 minutes. • After shaking, each plate was centrifuged at 4000 rpm and 4° C. for 20 minutes. • After centrifugation, an Apricot automation workstation was used to transfer 150 μL of supernatant from each reaction plate to its corresponding bioanalysis plate. • Each bioanalysis plate was submitted to LC-MS/MS analysis.
• The % remaining of test compound after incubation in blood was calculated using following equation:
(§3) [formula] • where PAR is the peak area ratio of analyte versus internal standard (IS) • The appointed incubation time points are TO (0 min), Tn (n=0, 10, 30, 60 and 120 min)

[2] = Plasma Stability Assay (human plasma); format: in vitro ADME; conditions: both sexes; pooled human plasma, heparin, final conc. 2 μM, 37° C., 0-120 min; read-out: Human Plasma Stability t1/2
Description: This Example illustrates that exemplary compounds of the present invention is cleavage in human plasma.
as §1, §2
• Test compound intermediate solution: 10 μL of compound stock solution (10 mM in dimethyl sulfoxide (DMSO)) were diluted with 90 μL of DMSO (intermediate solution concentration: 1 mM, 100% DMSO) • Control intermediate solution: 10 μL of control stock solution (10 mM in dimethyl sulfoxide (DMSO)) were diluted with 90 μL of DMSO (intermediate solution concentration: 1 mM, 100% DMSO) • Species/Matrix: Human Plasma • No. of Individuals: 3 Male & 3 Female • Anticoagulant Used: Heparin
• The pooled frozen plasma was thawed in a water bath at 37° C. prior to experiment. Plasma was centrifuged at 4000 rpm for 5 min and the clots were removed if any. • Using an Apricot automation workstation, 98 μL/well of blank plasma were added to all 96-well reaction plates. (Blank, T0, T10, T30, T60 and T120) • An Apricot automation workstation was used to add 2 μL/well of working solution (100 μM) to all reaction plates except Blank. (T0, T10, T30, T60 and T120) • All reaction plates containing mixtures of compound and plasma were incubated at 37° C. in water bath. • The reaction plates were incubated at 37° C., and timer was started. • At the end of incubation, added 500 μL of stop solution (200 ng/mL tolbutamide and 200 ng/mL labetalol in ACN) to precipitate protein. Mixed thoroughly. • Each plate was sealed and shaken for 20 minutes. • After shaking, each plate was centrifuged at 4000 rpm and 4° C. for 20 minutes • After centrifugation, an Apricot automation workstation was used to transfer 50 μL supernatant into 100 μL HPLC water. • Each bioanalysis plate was sealed and shaken for 10 minutes prior to LC-MS/MS analysis Data Analysis • The % remaining of test compound after incubation in blood was calculated using following equation:
as §3

| half-life at 2 μM [1] [min] | half-life at 2 μM [2] [min] | Mouse Whole Blood Stability t1/2 [1] [min] | SMILES |
| --- | --- | --- | --- |
| 3 | 23 | – | CCc1c(F)ccc2cc(OC(C)=O)cc(-c3ncc4c(N5C[C@@H]6C[C@H](C5)[C@H](O)C6)nc(OC[C@@]56CCCN5C[C@H](F)C6)nc4c3F)c12 [Example 1, 5-ethyl-6-fluoro-4-(8-fluoro-2-(((2R,7aS)-2-fluorotetrahydro-1H-pyrrolizin-7a(5H)-yl)methoxy)-4-((1R,5R,6R)-6-hydroxy-3-azabicyclo[3.2.1]octan-3-yl)pyrido[4,3-d]pyrimidin-7-yl)naphthalen-2-yl acetate] |
| – | 13 | 1 | CCC(=O)Oc1cc(-c2ncc3c(N4C[C@@H]5C[C@H](C4)[C@H](O)C5)nc(OC[C@@]45CCCN4C[C@H](F)C5)nc3c2F)c2c(CC)c(F)ccc2c1 [Example 2, 5-ethyl-6-fluoro-4-(8-fluoro-2-(((2R,7aS)-2-fluorotetrahydro-1H-pyrrolizin-7a(5H)-yl)methoxy)-4-((1R,5R,6R)-6-hydroxy-3-azabicyclo[3.2.1]octan-3-yl)pyrido[4,3-d]pyrimidin-7-yl)naphthalen-2-yl propionate] |
| 3 | 27 | – | CCc1c(F)ccc2cc(OC(=O)C(C)C)cc(-c3ncc4c(N5C[C@@H]6C[C@H](C5)[C@H](O)C6)nc(OC[C@@]56CCCN5C[C@H](F)C6)nc4c3F)c12 [Example 3, 5-ethyl-6-fluoro-4-(8-fluoro-2-(((2R,7aS)-2-fluorotetrahydro-1H-pyrrolizin-7a(5H)-yl)methoxy)-4-((1R,5R,6R)-6-hydroxy-3-azabicyclo[3.2.1]octan-3-yl)pyrido[4,3-d]pyrimidin-7-yl)naphthalen-2-yl isobutyrate] |
| 2 | – | – | CCc1c(F)ccc2cc(OC(C)=O)cc(N3CCc4c(nc(OCC56CCCN5C/C(=C\F)C6)nc4N4CCC[C@]5(C4)NC(=O)NC5=O)C3)c12 (stereo partly drawn) [Example 72, 4-(4-(CAN-2,4-dioxo-1,3,7-triazaspiro[4.5]decan-7-yl)-2-(((S,Z)-2-(fluoromethylene)tetrahydro-1H-pyrrolizin-7a(5H)-yl)methoxy)-5,8-dihydropyrido[3,4-d]pyrimidin-7(6H)-yl)-5-ethyl-6-fluoronaphthalen-2-yl acetate] |
| 4 | – | – | CCc1c(F)ccc2cc(OC(=O)C(C)C)cc(N3CCc4c(nc(OCC56CCCN5C/C(=C\F)C6)nc4N4CCC[C@]5(C4)NC(=O)NC5=O)C3)c12 (stereo partly drawn) [Example 76, 4-(4-(CAN-2,4-dioxo-1,3,7-triazaspiro[4.5]decan-7-yl)-2-(((S,Z)-2-(fluoromethylene)tetrahydro-1H-pyrrolizin-7a(5H)-yl)methoxy)-5,8-dihydropyrido[3,4-d]pyrimidin-7(6H)-yl)-5-ethyl-6-fluoronaphthalen-2-yl isobutyrate] |

| SMILES | half-life at 2 μM [1] [min] | half-life at 2 μM [2] [min] | Mouse Whole Blood Stability t1/2 [1] [min] |
| --- | --- | --- | --- |
| CCc1c(F)ccc2cc(OC(=O)N(CCOC)CCOC)cc(N3CCc4c(nc(OC[C@@]56CCCN5C[C@H](F)C6)nc4N4CCC[C@]5(C4)NC(=O)NC5=O)C3)c12 [Example 65, 4-(4-((R)-2,4-dioxo-1,3,7-triazaspiro[4.5]decan-7-yl)-2-(((2R,7aS)-2-fluorotetrahydro-1H-pyrrolizin-7a(5H)-yl)methoxy)-5,8-dihydropyrido[3,4-d]pyrimidin-7(6H)-yl)-5-ethyl-6-fluoronaphthalen-2-yl bis(2-methoxyethyl)carbamate] | – | > 289 | – |
| CCc1c(F)ccc2cc(OC(=O)N3CCCCC3)cc(N3CCc4c(nc(OC[C@@]56CCCN5C/C(=C\F)C6)nc4N4CCC[C@]5(C4)NC(=O)NC5=O)C3)c12 [Example 73, 4-(4-(CAN-2,4-dioxo-1,3,7-triazaspiro[4.5]decan-7-yl)-2-(((S,Z)-2-(fluoromethylene)tetrahydro-1H-pyrrolizin-7a(5H)-yl)methoxy)-5,8-dihydropyrido[3,4-d]pyrimidin-7(6H)-yl)-5-ethyl-6-fluoronaphthalen-2-yl piperidine-1-carboxylate] | 147 | – | – |
